Results from ChEMBL document CHEMBL4725249, “Quinazoline Based HSP90 Inhibitors: Synthesis, Modeling Study and ADME Calculations Towards Breast Cancer Targeting” (Bioorg Med Chem Lett, 2020).

Legend:
[1] = test system: WI-38; test: cells; settings: Homo sapiens, WI-38, 48 h
Description: Cytotoxicity against human WI-38 cells assessed as reduction in cell viability after 48 hrs by MTT assay

[2] = test system: HeLa; test: Antiproliferative activity against human HeLa cells assessed as reduction in cell viability after 48 hrs by MTT assay; type: functional, cell-based
[3] = test system: HCT-116; test: cells; settings: Homo sapiens, HCT-116, 48 h
Description: Antiproliferative activity against human HCT116 cells assessed as reduction in cell viability after 48 hrs by MTT assay

[4] = test system: MCF7; test: Antiproliferative activity against human MCF7 cells assessed as reduction in cell viability after 48 hrs by MTT assay; type: functional, cell-based; settings: MCF7, 48 h
[5] = molecular target: Heat shock protein HSP90 (Homo sapiens, UniProt P07900+P08238); test: Inhibition of HSP90 ATPase activity (unknown origin); type: protein assay
[6] = test system: MCF7; test: Induction of cell cycle arrest in human MCF7 cells assessed as cell accumulation at G0/G1 phase at 2 uM after 24 hrs by PI-staining based flow cytometry (reference value: 53.72%); type: functional
[7] = test system: MCF7; test: Induction of cell cycle arrest in human MCF7 cells assessed as cell accumulation at Pre-G1 phase at 2 uM after 24 hrs by PI-staining based flow cytometry (reference value: 1.64%); type: functional
[8] = test system: MCF7; test: Induction of cell cycle arrest in human MCF7 cells assessed as cell aggregates at 2 uM after 24 hrs by PI-staining based flow cytometry (reference value: 2.28%); type: functional
[9] = test system: MCF7; test: Induction of apoptosis in human MCF7 cells assessed as early apoptotic cells at 2 uM after 24 hrs by Annexin V-FITC/propidium iodide staining based flow cytometric analysis (reference value: 0.82%); type: functional
[10] = test system: MCF7; test: Induction of apoptosis in human MCF7 cells assessed as necrotic cells at 2 uM after 24 hrs by Annexin V-FITC/propidium iodide staining based flow cytometric analysis (reference value: 0.43%); type: functional
[11] = test system: MCF7; test: Induction of cell cycle arrest in human MCF7 cells assessed as cell accumulation at S phase at 2 uM after 24 hrs by PI-staining based flow cytometry (reference value: 35.44%); type: functional
[12] = test system: MCF7; test: Induction of cell cycle arrest in human MCF7 cells assessed as debris content at 2 uM after 24 hrs by PI-staining based flow cytometry (reference value: 2.09%); type: functional
[13] = test system: MCF7; test: Induction of apoptosis in human MCF7 cells assessed as late apoptotic cells at 2 uM after 24 hrs by Annexin V-FITC/propidium iodide staining based flow cytometric analysis (reference value: 0.39%); type: functional
[14] = test system: MCF7; test: Induction of cell cycle arrest in human MCF7 cells assessed as cell accumulation at G2/M phase at 2 uM after 24 hrs by PI-staining based flow cytometry (reference value: 10.84%); type: functional

| Structure (SMILES) | IC50 [1] | IC50 [2] | IC50 [3] | IC50 [4] | also measured |
| --- | --- | --- | --- | --- | --- |
| CCN1CCN(C(=O)CSc2nc3ccccc3c(=O)n2-c2ccccc2)CC1 | 82 µM | 37.5 µM | 44.3 µM | 23.9 µM | – |
| O=C(CSc1nc2ccccc2c(=O)n1-c1ccccc1)N1CCN(C2CCCCC2)CC1 | 78.4 µM | 53.6 µM | 60.9 µM | 35.9 µM | – |
| O=C(CSc1nc2ccccc2c(=O)n1-c1ccccc1)N1CCN(c2ncccn2)CC1 | 94.5 µM | 76.9 µM | 78.7 µM | 47.5 µM | – |
| O=c1c2ccccc2nc(SCCCSC(=S)N2CCN(c3ncccn3)CC2)n1-c1ccccc1 | > 100 µM | 74.4 µM | 79.6 µM | 49.3 µM | – |
| O=c1c2ccccc2nc(SCCCSC(=S)N2CCN(c3ccccc3)CC2)n1-c1ccccc1 | 29.8 µM | 26.1 µM | 27.6 µM | 15.5 µM | – |
| O=c1c2ccccc2nc(SCCCCl)n1-c1ccccc1 | 36.7 µM | 16.7 µM | 23.2 µM | 12.6 µM | – |
| O=c1c2ccccc2nc(SCCCSC(=S)N2CCCCC2)n1-c1ccccc1 | > 100 µM | 50.3 µM | 63.4 µM | 38.5 µM | – |
| CC(=O)N1CCN(C(=O)CSc2nc3ccccc3c(=O)n2-c2ccccc2)CC1 | 16 µM | 12 µM | 10.3 µM | 7.35 µM | IC50 [5]: 14.36 µM |
| C=CCN1CCN(C(=O)CSc2nc3ccccc3c(=O)n2-c2ccccc2)CC1 | 12.2 µM | 13.4 µM | 15.7 µM | 8.56 µM | Activity [6]: 31.59%; Activity [7]: 22.42%; Activity [8]: 2.21%; Activity [9]: 4.94%; IC50 [5]: 1.58 µM; Activity [10]: 2.31%; Activity [11]: 29.52%; Activity [12]: 2.63%; Activity [13]: 15.17%; Activity [14]: 38.89% |
| CC(C)(C)OC(=O)N1CCN(C(=O)CSc2nc3ccccc3c(=O)n2-c2ccccc2)CC1 | 62.6 µM | 34.5 µM | 48.3 µM | 25.9 µM | – |
| O=C(CSc1nc2ccccc2c(=O)n1-c1ccccc1)N1CCCCC1 | 65 µM | 22.5 µM | 25.3 µM | 13.8 µM | – |
| CCOc1ccccc1N1CCN(C(=S)SCCCSc2nc3ccccc3c(=O)n2-c2ccccc2)CC1 | 33.3 µM | 20.6 µM | 18.1 µM | 9.48 µM | IC50 [5]: 3.41 µM |
| C=CCN1CCN(C(=S)SCCCSc2nc3ccccc3c(=O)n2-c2ccccc2)CC1 | 82.5 µM | 28.7 µM | 32.1 µM | 17.8 µM | – |
| O=C(CSc1nc2ccccc2c(=O)n1-c1ccccc1)N1CCOCC1 | 16 µM | 18.2 µM | 19.8 µM | 11.7 µM | IC50 [5]: 3.21 µM |
| CN1CCN(C(=S)SCCCSc2nc3ccccc3c(=O)n2-c2ccccc2)CC1 | 70.5 µM | 33.3 µM | 32.8 µM | 19.3 µM | – |
| CC(=O)N1CCN(C(=S)SCCCSc2nc3ccccc3c(=O)n2-c2ccccc2)CC1 | > 100 µM | 54.9 µM | 37 µM | 22.4 µM | – |
| O=c1c2ccccc2nc(SCCCSC(=S)N2CCN(C3CCCCC3)CC2)n1-c1ccccc1 | > 100 µM | 64.5 µM | 73.8 µM | 45.9 µM | – |
| CCN1CCN(C(=S)SCCCSc2nc3ccccc3c(=O)n2-c2ccccc2)CC1 | > 100 µM | 79.6 µM | 88 µM | 64.3 µM | – |
